A value given as a limit tells only on which side of the number the result lay.

For assay [1], the target named is p38 MAPKα isoform (MAPK14) (Homo sapiens (Human), UniProt Q16539). Put plainly: p38 MAPKα enzyme inhibition (FRET, Z-LYTE, Method 2). It counts as biochemical. The procedure, abridged:
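Z-LYTE FRET: p38 MAPKα (80 ng/mL for Method 1, 200 ng/mL for Method 2, pre-dilution) preincubated 2 hr RT with compound (4–0.004 μg/mL solutions), activity read via MAPKAP-K2 phosphorylation after 1 hr RT and 1 hr protease development. Coumarin/fluorescein ratio gives phosphorylation; % inhibition versus uninhibited control, IC50 from concentration-response curve.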

A further assay concerns the target c-Src (Homo sapiens (Human), UniProt P12931). Put plainly: c-Src enzyme inhibition (FRET, Z-LYTE). In kind it is biochemical. In outline: (§1)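 Z-LYTE FRET read-out uses protease cleavage of unphosphorylated peptide, and the donor/acceptor ratio reflects phosphorylation. Kinase stocks (c-Src 3000, Syk 2000 ng/mL) were preincubated 2 hr RT with compound stocks of 0.004–4 μg/mL. Peptide and ATP solutions (c-Src 800 μM, Syk 60 μM) were then added for 1 hr. IC50 was taken from concentration-response.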

The target in the next assay is Syk (Homo sapiens (Human), UniProt P43405). The experiment in a line: Syk enzyme inhibition (FRET, Z-LYTE). It counts as biochemical. The procedure, abridged:
as §1

The target in another assay is GSK 3α (Homo sapiens (Human), UniProt P49840). The experiment in a line: GSK 3α enzyme inhibition (FRET, Z-LYTE, Method 2). It counts as biochemical. Conditions: read-out: IC50 Values for Enzyme Inhibition, GSK3α. The procedure, abridged: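 Phosphorylation of a dual-labelled synthetic peptide by human GSK3α is read as a coumarin/fluorescein ratio after protease development. Compound stocks run 4 to 0.004 μg/mL, and ATP stock is 40 μM.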
GSK 3α, sequence (P49840 whole entry): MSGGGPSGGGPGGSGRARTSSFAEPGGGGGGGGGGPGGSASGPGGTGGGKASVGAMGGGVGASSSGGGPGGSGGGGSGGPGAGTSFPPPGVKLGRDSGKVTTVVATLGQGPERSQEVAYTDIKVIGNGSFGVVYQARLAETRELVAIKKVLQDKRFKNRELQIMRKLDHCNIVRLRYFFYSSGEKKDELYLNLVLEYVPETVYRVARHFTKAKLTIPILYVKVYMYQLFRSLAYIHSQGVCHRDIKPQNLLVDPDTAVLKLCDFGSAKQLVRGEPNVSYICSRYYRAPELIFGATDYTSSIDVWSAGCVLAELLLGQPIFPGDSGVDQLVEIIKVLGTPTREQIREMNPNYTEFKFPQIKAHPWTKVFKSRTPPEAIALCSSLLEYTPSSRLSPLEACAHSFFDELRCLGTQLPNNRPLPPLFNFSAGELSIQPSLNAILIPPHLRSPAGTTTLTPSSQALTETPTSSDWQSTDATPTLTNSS

Assay [2] concerns PBMCs. Put plainly: LPS-induced IL-8 release in PBMC cells (assay b). In kind it is cell-based, human. The settings on record: Homo sapiens, PBMC; LPS-stimulated PBMCs; read-out: IC50 Values for Inhibition of Cytokine Release, PBMCs IL-8. In outline:
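Cytokines (TNFα, IL-8) in supernatants were quantified by sandwich ELISA after a 24 h challenge with 1 ng/mL E. coli LPS at 37° C, 5% CO2. Healthy-donor PBMCs had been exposed to compound for 2 h beforehand. IC50 values were fitted from the concentration-response curves.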

Assay [3] concerns PBMCs. Put plainly: IL-2 release in CD3/CD28 stimulated PBMC cells (assay c). It counts as cell-based. The settings on record: Homo sapiens, read-out: IC50 Values for Inhibition of Cytokine Release, PBMCs IL-2. The procedure, abridged:
(§2)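 Compound added to human PBMCs on anti-CD3/anti-CD28-coated wells (0.3 and 3 μg/mL respectively); 3-day culture. Sandwich ELISA of supernatant IL-2 or IFN gamma gives the read-out, with IC50 derived from the dose-response curve.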

For assay [4], the system named is PBMCs. Put plainly: IFN gamma release in CD3/CD28 stimulated PBMC cells (assay c). In kind it is cell-based. The settings on record: Homo sapiens, read-out: IC50 Values for Inhibition of Cytokine Release, PBMCs IFNγ. In outline: as §2
Assay [5] concerns PBMCs. The experiment in a line: Cell mitosis assay in PBMCs (assay g). Conditions: Homo sapiens, PBMC, test compound 5 μg/mL. It counts as cell-based. In outline: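 Metaphase arrest with 0.1 μg/mL demecolcine during the final 2 hr of a 20 hr compound exposure, which follows 48 hr of 2% PHA stimulation of healthy-donor human PBMCs. Mitotic lymphocytes counted by flow cytometry (anti-phospho-histone 3 plus propidium iodide). Inhibition expressed relative to 0.5% DMSO.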

c-Src, sequence (P12931 whole entry, looked up): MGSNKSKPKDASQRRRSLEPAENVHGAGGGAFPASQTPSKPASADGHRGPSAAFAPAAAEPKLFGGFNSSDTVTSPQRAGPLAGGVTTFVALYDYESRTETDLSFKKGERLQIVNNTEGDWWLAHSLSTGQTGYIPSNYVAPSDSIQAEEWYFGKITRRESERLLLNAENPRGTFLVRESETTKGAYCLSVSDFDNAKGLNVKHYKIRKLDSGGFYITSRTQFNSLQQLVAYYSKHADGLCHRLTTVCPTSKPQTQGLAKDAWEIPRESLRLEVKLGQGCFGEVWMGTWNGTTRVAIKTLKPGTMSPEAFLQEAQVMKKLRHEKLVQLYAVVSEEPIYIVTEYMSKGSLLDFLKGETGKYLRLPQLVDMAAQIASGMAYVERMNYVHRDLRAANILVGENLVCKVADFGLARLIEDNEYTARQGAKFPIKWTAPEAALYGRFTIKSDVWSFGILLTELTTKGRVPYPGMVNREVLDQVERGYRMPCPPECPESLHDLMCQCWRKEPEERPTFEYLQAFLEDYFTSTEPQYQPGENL
p38 MAPKα isoform (MAPK14), sequence (Q16539 whole entry, canonical isoform): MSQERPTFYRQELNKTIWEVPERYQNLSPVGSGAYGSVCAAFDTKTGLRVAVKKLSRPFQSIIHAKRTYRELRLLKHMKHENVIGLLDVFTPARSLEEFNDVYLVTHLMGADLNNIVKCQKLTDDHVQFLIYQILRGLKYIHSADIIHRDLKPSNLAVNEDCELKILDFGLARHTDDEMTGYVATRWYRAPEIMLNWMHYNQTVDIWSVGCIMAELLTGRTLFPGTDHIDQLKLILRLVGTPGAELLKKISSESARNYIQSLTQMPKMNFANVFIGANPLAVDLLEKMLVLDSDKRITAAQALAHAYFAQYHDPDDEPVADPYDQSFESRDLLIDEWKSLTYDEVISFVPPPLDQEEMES

With `COc1c(CC(N)=O)cc(C(C)(C)C)cc1NC(=O)Nc1ccc(Oc2ccnc(Nc3cc(C#N)cc(OCCN4CCOCC4)c3)c2)c2ccccc12` [Example 49, 2-(5-(tert-Butyl)-3-(3-(4-((2-((3-cyano-5-(2-morpholinoethoxy)phenyl)amino)pyridin-4-yl)oxy)naphthalen-1-yl)ureido)-2-methoxyphenyl)acetamide], the IC50 is 124 nM in assay [1]; 39 nM against c-Src; greater than 1340 nM against Syk; 4510 nM at GSK 3α; 0.8 nM in the assay with PBMCs [2]; 91 nM with PBMCs [3]. Moreover, in the assay on PBMCs [4], the IC50 is 5.7 nM. The molecule also had an inhibition at 5 µg/mL in the assay with PBMCs [5] of 43.9%.

Take `COc1c(NC(=O)Nc2ccc(Oc3ccnc(Nc4cc(C#N)cc(OCCN5CCOCC5)c4)c3)c3ccccc23)cc(C(C)(C)C)cc1[S+](C)[O-]` (centres unmarked) [Example 51, 1-(5-(tert-Butyl)-2-methoxy-3-(methylsulfinyl)phenyl)-3-(4-((2-((3-cyano-5-(2-morpholinoethoxy)phenyl)amino)pyridin-4-yl)oxy)naphthalen-1-yl)urea]: the IC50 in assay [1] is 158 nM; at c-Src it was 55 nM; on Syk, greater than 1340 nM; at GSK 3α, 8710 nM; with PBMCs [2], 1.3 nM; in the assay with PBMCs [3], 101 nM. Besides, the IC50 in the assay on PBMCs [4] was 75.2 nM. In addition, the inhibition at 5 µg/mL in the assay on PBMCs [5] was 28%.

As for `COc1c(CNC(C)=O)cc(C(C)(C)C)cc1NC(=O)Nc1ccc(Oc2ccnc(Nc3cc(OCCN4CCOCC4)cc(C(F)(F)F)c3)c2)c2ccccc12` [Example 52], the half-inhibitory concentration (IC50) is greater than 1250 nM in assay [1]; 235 nM on c-Src; greater than 1250 nM against Syk; greater than 12500 nM at GSK 3α; 2.8 nM with PBMCs [2]; 43.5 nM in the assay on PBMCs [3]. Besides, the IC50 with PBMCs [4] was found to be 5.5 nM. Besides, the inhibition at 5 µg/mL in the assay on PBMCs [5] is 46.8%.

With `COCCOCCOCCNC(=O)c1cc(Nc2cc(Oc3ccc(NC(=O)Nc4cc(C(C)(C)C)cc(CC(N)=O)c4OC)c4ccccc34)ccn2)cc(OC)c1` [Example 53, 3-((4-((4-(3-(3-(2-Amino-2-oxoethyl)-5-(tert-butyl)-2-methoxyphenyl)ureido)naphthalen-1-yl)oxy)pyridin-2-yl)amino)-5-methoxy-N-(2-(2-(2-methoxyethoxy)ethoxy)ethyl)benzamide], the IC50 in assay [1] is 12 nM; against c-Src, 22 nM; on Syk it was greater than 1240 nM; at GSK 3α it was 1560 nM; in the assay with PBMCs [2], 1.1 nM; with PBMCs [3] it was 52.5 nM. For the same molecule, the half-maximal inhibitory concentration (IC50) in the assay with PBMCs [4] was determined as 6 nM. Besides, the inhibition at 5 µg/mL in the assay on PBMCs [5] came to 22.3%.

For the molecule `COc1cc(Nc2cc(Oc3ccc(NC(=O)Nc4cc(C(C)(C)C)cc(S(C)(=O)=O)c4OC)c4ccccc34)ccn2)cc(C(=O)NCCN2CCOCC2)c1` [Example 54, 3-((4-((4-(3-(5-(tert-Butyl)-2-methoxy-3-(methylsulfonyl)phenyl)ureido)naphthalen-1-yl)oxy)pyridin-2-yl)amino)-5-methoxy-N-(2-morpholinoethyl)benzamide], the half-inhibitory concentration (IC50) is 63 nM in assay [1]; 43 nM on c-Src; 590 nM on Syk; greater than 5020 nM at GSK 3α; 1.5 nM in the assay on PBMCs [2]; 37.9 nM in the assay with PBMCs [3]. Besides, in the assay with PBMCs [4], the half-inhibitory concentration (IC50) came to 3.7 nM. In the assay with PBMCs [5], this molecule showed an inhibition at 5 µg/mL of 51.9%.

As to `COc1cc(Nc2cc(Oc3ccc(NC(=O)Nc4cc(C(C)(C)C)cc([S+](C)[O-])c4OC)c4ccccc34)ccn2)cc(C(N)=O)c1` (centres unmarked) [Example 55, 3-((4-((4-(3-(5-(tert-Butyl)-2-methoxy-3-(methylsulfinyl)phenyl)ureido)naphthalen-1-yl)oxy)pyridin-2-yl)amino)-5-methoxybenzamide], the IC50 in assay [1] was 38 nM; at c-Src, 37 nM; against Syk, greater than 692 nM; at GSK 3α it was 2480 nM; in the assay on PBMCs [2], 0.6 nM; with PBMCs [3] it was 31.2 nM. In addition, the 50% inhibitory concentration (IC50) with PBMCs [4] stood at 6.2 nM. For the same molecule, at 5 µg/mL the inhibition in the assay on PBMCs [5] was 51.7%.

Consider `COc1cc(Nc2cc(Oc3ccc(NC(=O)Nc4cc(C(C)(C)C)cc(CC(N)=O)c4OC)c4ccccc34)ccn2)cc(S(C)(=O)=O)c1` [Example 56, 2-(5-(tert-Butyl)-2-methoxy-3-(3-(4-((2-((3-methoxy-5-(methylsulfonyl)phenyl)amino)pyridin-4-yl)oxy)naphthalen-1-yl)ureido)phenyl)acetamide], for which the half-maximal inhibitory concentration (IC50) in assay [1] is 188 nM; against c-Src it was 83 nM; against Syk, greater than 1430 nM; at GSK 3α, 1600 nM; in the assay on PBMCs [2] it was 1.2 nM; with PBMCs [3], 234 nM. In addition, the half-maximal inhibitory concentration (IC50) in the assay with PBMCs [4] is 9.5 nM. Besides, testing at 5 µg/mL in the assay with PBMCs [5] gave an inhibition of 17.6%.

`COc1cc(Nc2cc(Oc3ccc(NC(=O)Nc4cc(C(C)(C)C)cc(OCCO)c4OC)c4ccccc34)ccn2)cc(C(N)=O)c1` [Example 57, 3-((4-((4-(3-(5-(tert-Butyl)-3-(2-hydroxyethoxy)-2-methoxyphenyl)ureido)naphthalen-1-yl)oxy)pyridin-2-yl)amino)-5-methoxybenzamide]: the concentration for half-maximal inhibition (IC50) was 209 nM in assay [1]; 98 nM at c-Src; greater than 1500 nM against Syk; 3870 nM at GSK 3α; 1.1 nM with PBMCs [2]; 92.9 nM in the assay with PBMCs [3]. The IC50 with PBMCs [4] was 7.8 nM. Moreover, in the assay on PBMCs [5], at 5 µg/mL the inhibition was 50.6%.

As to `COc1cc(Nc2cc(Oc3ccc(NC(=O)Nc4cc(C(C)(C)C)cc(P(C)(C)=O)c4OC)c4ccccc34)ccn2)cc(S(=O)(=O)N(C)C)c1` [Example 58, 3-((4-((4-(3-(5-(tert-Butyl)-3-(dimethylphosphoryl)-2-methoxyphenyl)ureido)naphthalen-1-yl)oxy)pyridin-2-yl)amino)-5-methoxy-N,N-dimethylbenzenesulfonamide], the 50% inhibitory concentration (IC50) in assay [1] is 527 nM; on c-Src, 101 nM; against Syk, greater than 1340 nM; on GSK 3α it was 7100 nM; in the assay on PBMCs [2], 1.4 nM; in the assay on PBMCs [3], 587 nM. For the same molecule, the IC50 in the assay on PBMCs [4] was 3.2 nM. In the assay with PBMCs [5], this molecule yielded an inhibition at 5 µg/mL of 2.9%.

Take `COCCOCCOCCNC(=O)c1cc(Nc2cc(Oc3ccc(NC(=O)Nc4cc(C(C)(C)C)cc(C(=O)NCCN5CCOCC5)c4OC)c4ccccc34)ccn2)cc(OC)c1` [Example 59, 5-(tert-Butyl)-2-methoxy-3-(3-(4-((2-((3-methoxy-5-((2-(2-(2-methoxyethoxy)ethoxy)ethyl)carbamoyl)phenyl)amino)pyridin-4-yl)oxy)naphthalen-1-yl)ureido)-N-(2-morpholinoethyl)benzamide]: the IC50 was 127 nM in assay [1]; 43 nM on c-Src; 560 nM against Syk; 2510 nM at GSK 3α; 1.7 nM in the assay with PBMCs [2]; 55.6 nM in the assay with PBMCs [3]. Besides, the IC50 in the assay on PBMCs [4] was found to be 2.9 nM. This molecule had an inhibition at 5 µg/mL in the assay with PBMCs [5] of 30.9%.

Broadly, the IC50 is the concentration needed to halve the response being measured. By inhibition is commonly meant the change of the read-out against control, counted positive when it falls.

The values are drawn from patent US9890185B2, “Urea derivatives useful as kinase inhibitors” (Respivert Limited, priority 2013, dated 2018).
